Laboratory results from ChEMBL document CHEMBL3769303, “Discovery of membrane active benzimidazole quinolones-based topoisomerase inhibitors as potential DNA-binding antimicrobial agents” (Eur J Med Chem, 2016).
Values after ≈ are worked out from the molar mass of the structure shown.

Key:
Type in all cases: functional
[1] = test system: Shigella dysenteriae; assay: Antibacterial activity against Shigella dysenteriae by micro broth dilution method
[2] = test system: Staphylococcus aureus; assay: Antibacterial activity against methicillin-resistant Staphylococcus aureus N315 by micro broth dilution method
[3] = test system: Staphylococcus aureus; assay: Antibacterial activity against Staphylococcus aureus ATCC 25923 by micro broth dilution method
[4] = test system: Micrococcus luteus; assay: Antibacterial activity against Micrococcus luteus ATCC 4698 by micro broth dilution method; conditions: NCTC 2665
[5] = test system: Bacillus spizizenii; assay: Antibacterial activity against Bacillus subtilis ATCC 6633 by micro broth dilution method
[6] = test system: Escherichia coli; assay: Antibacterial activity against Escherichia coli DH52 by micro broth dilution method
[7] = test system: Escherichia coli; assay: Antibacterial activity against Escherichia coli JM109 by micro broth dilution method
[8] = test system: Pseudomonas aeruginosa; assay: Antibacterial activity against Pseudomonas aeruginosa ATCC 27853 by micro broth dilution method
[9] = Antibacterial activity against Bacillus proteus ATCC 13315 by micro broth dilution method
[10] = test system: Salmonella enterica; assay: Antibacterial activity against Salmonella enterica ATCC 14028 by micro broth dilution method
[11] = Antifungal activity against Candida mycoderma ATCC 9888 after 24 hrs by micro broth dilution method; conditions: Candida vini
[12] = test system: Cyberlindnera jadinii; assay: Antifungal activity against Candida utilis ATCC 9950 after 24 hrs by micro broth dilution method; conditions: Williopsis jadinii, ATCC 9950, 24 h
[13] = test system: Aspergillus flavus; assay: Antifungal activity against Aspergillus flavus ATCC 204304 after 24 hrs by micro broth dilution method; conditions: ATCC 204304, 24 h
[14] = test system: Saccharomyces cerevisiae; assay: Antifungal activity against Saccharomyces cerevisiae ATCC 9763 after 24 hrs by micro broth dilution method; conditions: ATCC 9763, 24 h
[15] = test system: Candida albicans; assay: Antifungal activity against Candida albicans ATCC 10231 after 24 hrs by micro broth dilution method; conditions: ATCC 10231, 24 h

| SMILES | MIC [1] [µg/mL] | MIC [2] [µg/mL] | MIC [3] [µg/mL] | MIC [4] [µg/mL] | MIC [5] [µg/mL] | MIC [6] [µg/mL] | MIC [7] [µg/mL] | MIC [8] [µg/mL] | MIC [9] [µg/mL] | MIC [10] [µg/mL] | MIC80 [11] [µg/mL] | MIC80 [12] [µg/mL] | MIC80 [13] [µg/mL] | MIC80 [14] [µg/mL] | MIC80 [15] [µg/mL] |
| --- | --- | --- | --- | --- | --- | --- | --- | --- | --- | --- | --- | --- | --- | --- | --- |
| O=C(O)c1cn(C2CC2)c2cc(N3CCN(Cc4nc5ccc(Cl)cc5[nH]4)CC3)c(F)cc2c1=O | 0.5 (≈ 1.01 µM) | 0.5 (≈ 1.01 µM) | 0.5 (≈ 1.01 µM) | 0.25 (≈ 0.504 µM) | 0.5 (≈ 1.01 µM) | 0.5 (≈ 1.01 µM) | 0.5 (≈ 1.01 µM) | 0.5 (≈ 1.01 µM) | 0.5 (≈ 1.01 µM) | 0.5 (≈ 1.01 µM) | 0.5 (≈ 1.01 µM) | 0.5 (≈ 1.01 µM) | 0.5 (≈ 1.01 µM) | 0.25 (≈ 0.504 µM) | 0.5 (≈ 1.01 µM) |
| CCn1cc(C(=O)O)c(=O)c2cc(F)c(N3CCN(Cc4nc5ccc(Br)cc5[nH]4)CC3)cc21 | 16 (≈ 30.3 µM) | 32 (≈ 60.6 µM) | 64 (≈ 121 µM) | 2 (≈ 3.79 µM) | 8 (≈ 15.1 µM) | 16 (≈ 30.3 µM) | 16 (≈ 30.3 µM) | 2 (≈ 3.79 µM) | 4 (≈ 7.57 µM) | 8 (≈ 15.1 µM) | 32 (≈ 60.6 µM) | 16 (≈ 30.3 µM) | 4 (≈ 7.57 µM) | 16 (≈ 30.3 µM) | 64 (≈ 121 µM) |
| CCn1cc(C(=O)O)c(=O)c2cc(F)c(N3CCN(Cc4nc5ccc(Cl)cc5[nH]4)CC3)cc21 | 1 (≈ 2.07 µM) | 1 (≈ 2.07 µM) | 2 (≈ 4.13 µM) | 1 (≈ 2.07 µM) | 16 (≈ 33.1 µM) | 0.5 (≈ 1.03 µM) | 2 (≈ 4.13 µM) | 1 (≈ 2.07 µM) | 0.5 (≈ 1.03 µM) | 0.5 (≈ 1.03 µM) | 8 (≈ 16.5 µM) | 8 (≈ 16.5 µM) | 2 (≈ 4.13 µM) | 8 (≈ 16.5 µM) | 32 (≈ 66.1 µM) |
| CCn1cc(C(=O)O)c(=O)c2cc(F)c(N3CCN(Cc4nc5ccc([N+](=O)[O-])cc5[nH]4)CC3)cc21 | 4 (≈ 8.09 µM) | 8 (≈ 16.2 µM) | 16 (≈ 32.4 µM) | 1 (≈ 2.02 µM) | 8 (≈ 16.2 µM) | 8 (≈ 16.2 µM) | 32 (≈ 64.7 µM) | 2 (≈ 4.04 µM) | 2 (≈ 4.04 µM) | 4 (≈ 8.09 µM) | 8 (≈ 16.2 µM) | 8 (≈ 16.2 µM) | 2 (≈ 4.04 µM) | 16 (≈ 32.4 µM) | 4 (≈ 8.09 µM) |
| CCCCCCCCCCn1c(CN2CCN(c3cc4c(cc3F)c(=O)c(C(=O)O)cn4C3CC3)CC2)nc2ccccc21 | 64 (≈ 106 µM) | 64 (≈ 106 µM) | 64 (≈ 106 µM) | 128 (≈ 213 µM) | 64 (≈ 106 µM) | 128 (≈ 213 µM) | 128 (≈ 213 µM) | 32 (≈ 53.2 µM) | 32 (≈ 53.2 µM) | 32 (≈ 53.2 µM) | 64 (≈ 106 µM) | 64 (≈ 106 µM) | 16 (≈ 26.6 µM) | 16 (≈ 26.6 µM) | 64 (≈ 106 µM) |
| CCn1cc(C(=O)O)c(=O)c2cc(F)c(N3CCN(CCc4nc5ccccc5[nH]4)CC3)cc21 | 128 (≈ 276 µM) | 16 (≈ 34.5 µM) | 64 (≈ 138 µM) | 64 (≈ 138 µM) | 2 (≈ 4.31 µM) | 32 (≈ 69 µM) | 32 (≈ 69 µM) | 32 (≈ 69 µM) | 16 (≈ 34.5 µM) | 32 (≈ 69 µM) | 64 (≈ 138 µM) | 32 (≈ 69 µM) | 32 (≈ 69 µM) | 64 (≈ 138 µM) | 64 (≈ 138 µM) |
| O=C(O)c1cn(C2CC2)c2cc(N3CCN(Cc4nc5ccccc5n4Cc4cccc(F)c4)CC3)c(F)cc2c1=O | 256 (≈ 449 µM) | 8 (≈ 14 µM) | 256 (≈ 449 µM) | 64 (≈ 112 µM) | 32 (≈ 56.2 µM) | 256 (≈ 449 µM) | 256 (≈ 449 µM) | 16 (≈ 28.1 µM) | 128 (≈ 225 µM) | 4 (≈ 7.02 µM) | 64 (≈ 112 µM) | 256 (≈ 449 µM) | 16 (≈ 28.1 µM) | 128 (≈ 225 µM) | 64 (≈ 112 µM) |
| O=C(O)c1cn(C2CC2)c2cc(N3CCN(Cc4nc5ccccc5n4Cc4ccccc4Cl)CC3)c(F)cc2c1=O | 16 (≈ 27.3 µM) | 4 (≈ 6.83 µM) | 16 (≈ 27.3 µM) | 4 (≈ 6.83 µM) | 0.5 (≈ 0.853 µM) | 2 (≈ 3.41 µM) | 16 (≈ 27.3 µM) | 2 (≈ 3.41 µM) | 1 (≈ 1.71 µM) | 2 (≈ 3.41 µM) | 4 (≈ 6.83 µM) | 1 (≈ 1.71 µM) | 0.5 (≈ 0.853 µM) | 16 (≈ 27.3 µM) | 8 (≈ 13.7 µM) |
| CCCCCCCCCCCCn1c(CN2CCN(c3cc4c(cc3F)c(=O)c(C(=O)O)cn4CC)CC2)nc2ccccc21 | 256 (≈ 414 µM) | 256 (≈ 414 µM) | 128 (≈ 207 µM) | 256 (≈ 414 µM) | 128 (≈ 207 µM) | 256 (≈ 414 µM) | 512 (≈ 829 µM) | 256 (≈ 414 µM) | 256 (≈ 414 µM) | 256 (≈ 414 µM) | 128 (≈ 207 µM) | 64 (≈ 104 µM) | 64 (≈ 104 µM) | 256 (≈ 414 µM) | 128 (≈ 207 µM) |
| CCn1cc(C(=O)O)c(=O)c2cc(F)c(N3CCN(Cc4nc5ccccc5n4CC)CC3)cc21 | 128 (≈ 268 µM) | 8 (≈ 16.8 µM) | 128 (≈ 268 µM) | 4 (≈ 8.38 µM) | 2 (≈ 4.19 µM) | 4 (≈ 8.38 µM) | 32 (≈ 67 µM) | 32 (≈ 67 µM) | 1 (≈ 2.09 µM) | 0.5 (≈ 1.05 µM) | 0.25 (≈ 0.524 µM) | 8 (≈ 16.8 µM) | 32 (≈ 67 µM) | 64 (≈ 134 µM) | 4 (≈ 8.38 µM) |
